Test results from ChEMBL document CHEMBL1926629, “Design, synthesis and insight into the structure-activity relationship of 1,3-disubstituted indazoles as novel HIF-1 inhibitors” (Bioorg Med Chem Lett, 2011).

What was measured:
[1] = Inhibition of hypoxia-induced HIF-1 transcriptional activity by luciferase reporter assay
[2] = biological target: Hypoxia-inducible factor 1-alpha (Homo sapiens) (UniProt Q16665); assay: Inhibition of hypoxia-induced HIF1alpha protein reduction in human Hep3B cells by Western blot analysis; format: cell-based; conditions: Hep 3B2
Chain of Hypoxia-inducible factor 1-alpha (Homo sapiens) (Q16665 whole entry, looked up): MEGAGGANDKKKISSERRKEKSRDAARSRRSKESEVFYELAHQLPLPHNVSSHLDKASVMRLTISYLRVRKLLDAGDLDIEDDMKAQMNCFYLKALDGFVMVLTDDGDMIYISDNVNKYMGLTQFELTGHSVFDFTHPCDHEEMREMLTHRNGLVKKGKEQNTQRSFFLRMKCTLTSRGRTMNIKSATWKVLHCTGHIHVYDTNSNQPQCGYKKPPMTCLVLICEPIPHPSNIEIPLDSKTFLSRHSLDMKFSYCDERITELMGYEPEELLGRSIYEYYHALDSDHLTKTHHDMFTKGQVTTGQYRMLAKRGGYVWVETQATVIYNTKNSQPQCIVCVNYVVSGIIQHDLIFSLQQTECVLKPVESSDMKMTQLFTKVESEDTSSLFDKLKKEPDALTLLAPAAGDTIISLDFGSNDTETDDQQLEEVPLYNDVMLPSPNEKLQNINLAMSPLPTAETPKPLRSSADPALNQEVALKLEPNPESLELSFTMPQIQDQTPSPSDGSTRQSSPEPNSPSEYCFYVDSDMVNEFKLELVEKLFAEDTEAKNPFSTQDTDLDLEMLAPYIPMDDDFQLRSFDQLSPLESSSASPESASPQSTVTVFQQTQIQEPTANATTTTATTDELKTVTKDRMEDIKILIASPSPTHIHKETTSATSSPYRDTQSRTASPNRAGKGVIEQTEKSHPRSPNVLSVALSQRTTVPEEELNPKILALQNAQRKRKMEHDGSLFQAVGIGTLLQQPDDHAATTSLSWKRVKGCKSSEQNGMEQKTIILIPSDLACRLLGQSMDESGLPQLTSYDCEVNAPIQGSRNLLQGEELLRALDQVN

IC50 [1] | inhibition [2] | Compound
> 30 µM | – | Cn1nc(-c2ncc(CO)s2)c2ccccc21
0.89 µM | – | CC(C)(C)C(=O)OCc1ccc(-c2nn(Cc3ccccc3)c3ccccc23)o1
> 30 µM | – | Cn1nc(-c2ccc(CN=[N+]=[N-])o2)c2ccccc21
16.9 µM | – | CC(=O)OCc1ccc(-c2nn(C)c3ccccc23)o1
11.9 µM | – | NC(=O)c1ccc(-c2nn(Cc3ccccc3)c3ccccc23)o1
> 30 µM | – | Cn1nc(-c2ccc(CN)o2)c2ccccc21
0.9 µM | – | COC(=O)c1ccc(-c2nn(Cc3ccccc3)c3ccccc23)o1
2 µM | – | Cn1nc(-c2ccc(CN3CCCCC3)o2)c2ccccc21
2.3 µM | – | CC(=O)OCc1ccc(-c2nn(Cc3ccccc3)c3ccccc23)o1
> 30 µM | – | Cn1nc(-c2cc(CO)no2)c2ccccc21
8.9 µM | – | Cn1nc(-c2ccc(CO)o2)c2ccccc21
1.2 µM | – | OCc1ccc(-c2nn(Cc3ccccc3)c3ccccc23)o1
7.7 µM | – | CNCc1ccc(-c2nn(C)c3ccccc23)o1
23.9 µM | – | OCc1cc(-c2nn(Cc3ccccc3)c3ccccc23)on1

Further lines, the molecule ahead of its results:

Compound | IC50 [1] | inhibition [2]
OCc1coc(-c2nn(Cc3ccccc3)c3ccccc23)n1 | > 30 µM | –
O=S(=O)(c1ccccc1)n1nc(-c2ccc(CO)o2)c2ccccc21 | 1.3 µM | –
OCc1cnc(-c2nn(Cc3ccccc3)c3ccccc23)o1 | > 30 µM | –
CC(C)C(=O)OCc1ccc(-c2nn(Cc3ccccc3)c3ccccc23)o1 | 0.74 µM | Dose-dependent effect
CC(=O)NCc1ccc(-c2nn(C)c3ccccc23)o1 | 13.4 µM | –
Cn1nc(-c2ncc(CO)o2)c2ccccc21 | > 30 µM | –
Cn1nc(-c2ccc(CN3CCOCC3)o2)c2ccccc21 | 1.9 µM | –
Cn1nc(-c2nc(CO)co2)c2ccccc21 | > 30 µM | –
OCC1CN=C(c2nn(Cc3ccccc3)c3ccccc23)O1 (stereo not drawn) | > 30 µM | –
CN(C)Cc1ccc(-c2nn(C)c3ccccc23)o1 | 8.5 µM | –
[N-]=[N+]=NCc1ccc(-c2nn(Cc3ccccc3)c3ccccc23)o1 | > 30 µM | –
OCc1cnc(-c2nn(Cc3ccccc3)c3ccccc23)s1 | > 30 µM | –
OCc1ccc(-c2[nH]nc3ccccc23)o1 | 5 µM | –
